For one compound, inhibition and IC50 results are on record in patent publication US9890175B2, “Taxane compound, and preparation method and use thereof” (JIANGSU TASLY DIYI PHARMACEUTICAL CO., LTD., priority 2013, dated 2018).

The term IC50 denotes the concentration that gives 50% inhibition.

Molecules are shown by their SMILES.

Type in all cases: cell-based
Test [1] concerns MCF-7 breast cancer cells. Briefly: MTT proliferation inhibition, MCF-7. Conditions: Homo sapiens, MCF7, read-out: Proliferation inhibition rate, MCF-7 Breast cancer. The text has this: (§1) 1. Cytotoxicity Assay Using Human Tumor Cell Lines
(§2) Paclitaxel was used as the positive drug.

Test [2] has as its system NCI-H460 non-small cell lung cancer. Kind of test: MTT proliferation inhibition, NCI-H460. As to conditions: Homo sapiens, NCI-H460, read-out: Proliferation inhibition rate, NCI-H460 Non-small cell lung cancer.
Description: as §1, §2

The subject of test [3] is HT-29 colon cancer. Kind of test: MTT proliferation inhibition, HT-29. As to conditions: Homo sapiens, HT-29, read-out: Proliferation inhibition rate, HT29 Colon cancer.
Description: as §1, §2

The test system of test [4] is BGC-823 gastric cancer. Kind of test: MTT proliferation inhibition, BGC-823. Conditions: Homo sapiens, BGC-823, read-out: Proliferation inhibition rate, BGC-823 Gastric cancer.
Description: as §1, §2

For test [5], the system named is breast cancer cell line MCF-7. Briefly: IC50 on breast cancer cell line MCF-7. As to conditions: Homo sapiens, MCF7, 72 h, read-out: MCF-7 (IC50, nM).

In the case of `CO[C@H]1C[C@H]2OC[C@@]2(OC(C)=O)[C@H]2[C@H](OC(=O)c3ccccc3)[C@]34OC(=O)O[C@H]3[C@H](OC(=O)[C@H](O)[C@@H](NC(=O)OC(C)(C)C)c3ccccc3)C(C)=C([C@@H](OC(=O)N(C)C)C(=O)[C@]12C)C4(C)C` [PCMI-08], the inhibition at 1 µM amounted to 81.3% in test [1], 85.2% in test [2], 81.7% in test [3] and 80.8% in test [4]. Further, the IC50 in test [5] was 7.93 ± 0.14 nM.
